According to patent publication US9273057B2 (Bristol-Myers Squibb Company, priority 2012, dated 2016):
pIC50: −log10 of the molar value.

biological target: CK2A1 (CK2α/β) (Homo sapiens, UniProt P68400); assay: CK2 kinase assay, CK2A1 (CK2α/β); format: biochemical; settings: Table A; read-out: CK2A1 (CK2α/β) (IC50)
Sequence (P68400 whole entry, species assumed): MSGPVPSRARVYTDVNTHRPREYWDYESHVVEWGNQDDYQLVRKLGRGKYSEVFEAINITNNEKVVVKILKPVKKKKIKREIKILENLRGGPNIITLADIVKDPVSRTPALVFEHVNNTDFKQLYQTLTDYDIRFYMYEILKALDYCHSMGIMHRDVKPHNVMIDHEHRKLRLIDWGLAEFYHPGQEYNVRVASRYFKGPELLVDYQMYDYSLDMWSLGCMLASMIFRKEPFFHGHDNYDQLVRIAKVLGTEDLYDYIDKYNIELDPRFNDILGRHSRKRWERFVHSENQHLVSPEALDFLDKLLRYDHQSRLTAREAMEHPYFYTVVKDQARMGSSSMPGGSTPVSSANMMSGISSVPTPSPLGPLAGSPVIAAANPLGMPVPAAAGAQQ
Sequence (P67870 whole entry partner, species assumed): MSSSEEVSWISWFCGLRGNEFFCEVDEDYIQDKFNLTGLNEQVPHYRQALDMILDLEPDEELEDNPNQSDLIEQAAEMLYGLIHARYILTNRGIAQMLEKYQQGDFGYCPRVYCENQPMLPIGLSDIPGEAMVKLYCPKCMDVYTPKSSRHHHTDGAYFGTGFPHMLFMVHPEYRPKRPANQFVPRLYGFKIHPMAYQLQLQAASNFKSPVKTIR

Row | pIC50 | SMILES
1 | 9.39 | N#Cc1cc(Nc2nc(NC3CC3)c3ncc(C#N)n3n2)c(Cl)c(N2CCN(C(=O)C(F)F)CC2)c1 [Example 75, 2-(2-chloro-5-cyano-3-(4-(2,2-difluoroacetyl)piperazin-1-yl)phenylamino)-4-(cyclopropylamino) imidazo[1,2-f][1,2,4] triazine-7-carbonitrile]
2 | 9.12 | CC(=O)NCC(=O)N1CCN(c2cc(C#N)cc(Nc3nc(NC4CC4)c4ncc(C#N)n4n3)c2Cl)CC1 [Example 76, N-(2-(4-(2-chloro-5-cyano-3-((7-cyano-4-(cyclopropylamino)imidazo[2,1-f][1,2,4]triazin-2-yl)amino)phenyl)-1-piperazinyl)-2-oxoethyl)acetamide]
3 | 9.16 | COCC(=O)N1CCN(c2cc(C#N)cc(Nc3nc(NC4CC4)c4ncc(C#N)n4n3)c2Cl)CC1 [Example 77]
4 | 9.39 | N#Cc1cc(Nc2nc(NC3CC3)c3ncc(C#N)n3n2)c(Cl)c(N2CCN(C(=O)CO)CC2)c1 [Example 78, 2-(2-chloro-5-cyano-3-(4-(2-hydroxyacetyl)piperazin-1-yl)phenylamino)-4-(cyclopropylamino) imidazo[1,2-f][1,2,4] triazine-7-carbonitrile]
5 | 9.28 | CC(C)(O)C(=O)N1CCN(c2cc(C#N)cc(Nc3nc(NC4CC4)c4ncc(C#N)n4n3)c2Cl)CC1 [Example 79, 2-((2-chloro-5-cyano-3-(4-(2-hydroxy-2-methylpropanoyl)-1-piperazinyl)phenyl)amino)-4-(cyclopropylamino) imidazo[2,1-f][1,2,4] triazine-7-carbonitrile]
6 | 9.10 | N#Cc1cc(Nc2nc(NC3CC3)c3ncc(C#N)n3n2)c(Cl)c(N2CCN(C(=O)CCN3CCCCC3)CC2)c1 [Example 82, 2-((2-chloro-5-cyano-3-(4-(3-(1-piperidinyl)propanoyl)-1-piperazinyl)phenyl)amino)-4-(cyclopropylamino) imidazo[2,1-f][1,2,4] triazine-7-carbonitrile]
7 | 9.20 | CC(=O)N1CCC[C@H]1C(=O)N1CCN(c2cc(C#N)cc(Nc3nc(NC4CC4)c4ncc(C#N)n4n3)c2Cl)CC1 [Example 83, 2-((3-(4-(1-acetyl-L-prolyl)-1-piperazinyl)-2-chloro-5-cyanophenyl)amino)-4-(cyclopropylamino) imidazo[2,1-f][1,2,4] triazine-7-carbonitrile]
8 | 9.24 | CC(=O)N1CCN(c2cc(C#N)cc(Nc3nc(NC4CC4)c4ncc(C#N)n4n3)c2Cl)CC1 [Example 85, 2-((3-(4-acetyl-1-piperazinyl)-2-chloro-5-cyanophenyl)amino)-4-(cyclopropylamino) imidazo[2,1-fl][1,2,4] triazine-7-carbonitrile]
9 | 9.14 | N#Cc1cc(Nc2nc(NC3CC3)c3ncc(C#N)n3n2)c(Cl)c(N2CCN(C(=O)CC3CC3)CC2)c1 [Example 86]
10 | 9.12 | COCCC(=O)N1CCN(c2cc(C#N)cc(Nc3nc(NC4CC4)c4ncc(C#N)n4n3)c2Cl)CC1 [Example 87, 2-((2-chloro-5-cyano-3-(4-(3-methoxypropanoyl)-1-piperazinyl)phenyl)amino)-4-(cyclopropylamino) imidazo[2,1-f][1,2,4] triazine-7-carbonitrile]
11 | 9.22 | COCCOCC(=O)N1CCN(c2cc(C#N)cc(Nc3nc(NC4CC4)c4ncc(C#N)n4n3)c2Cl)CC1 [Example 88, 2-((2-chloro-5-cyano-3-(4-((2-methoxyethoxy)acetyl)-1-piperazinyl)phenyl)amino)-4-(cyclopropylamino) imidazo[2,1-f][1,2,4] triazine-7-carbonitrile]
12 | 8.54 | CS(=O)(=O)CC(=O)N1CCN(c2cc(C#N)cc(Nc3nc(NC4CC4)c4ncc(C#N)n4n3)c2Cl)CC1 [Example 89, 2-((2-chloro-5-cyano-3-(4-((methylsulfonyl)acetyl)-1-piperazinyl)phenyl)amino)-4-(cyclopropylamino) imidazo[2,1-f][1,2,4] triazine-7-carbonitrile]
13 | 9.28 | N#Cc1cc(Nc2nc(NC3CC3)c3ncc(C#N)n3n2)c(Cl)c(N2CCN(C(=O)CCO)CC2)c1 [Example 90, 2-(2-chloro-5-cyano-3-(4-(3-hydroxypropanoyl)piperazin-1-yl)phenylamino)-4-(cyclopropylamino) imidazo[1,2-f][1,2,4] triazine-7-carbonitrile]
14 | 9.31 | CC(C)(O)CC(=O)N1CCN(c2cc(C#N)cc(Nc3nc(NC4CC4)c4ncc(C#N)n4n3)c2Cl)CC1 [Example 91]
15 | 9.34 | N#Cc1cc(Nc2nc(NC3CC3)c3ncc(C#N)n3n2)c(Cl)c(N2CCN(C(=O)CCCS(N)(=O)=O)CC2)c1 [Example 93, 4-(4-(2-chloro-5-cyano-3-((7-cyano-4-(cyclopropylamino)imidazo[2,1-f][1,2,4]triazin-2-yl)amino)phenyl)-1-piperazinyl)-4-oxo-1-butanesulfonamide]
16 | 9.04 | N#Cc1cc(Nc2nc(NC3CC3)c3ncc(C#N)n3n2)c(Cl)c(N2CCN(C(=O)CC3CCOCC3)CC2)c1 [Example 95, 2-((2-chloro-5-cyano-3-(4-(tetrahydro-2H-pyran-4-ylacetyl)-1-piperazinyl)phenyl)amino)-4-(cyclopropylamino) imidazo[2,1-f][1,2,4] triazine-7-carbonitrile]
17 | 9.20 | N#Cc1cc(Nc2nc(NC3CC3)c3ncc(C#N)n3n2)c(Cl)c(N2CCN(C(=O)CCCn3ccnc3)CC2)c1 [Example 96, 2-((2-chloro-5-cyano-3-(4-(4-(1H-imidazol-1-yl)butanoyl)-1-piperazinyl)phenyl)amino)-4-(cyclopropylamino) imidazo[2,1-f][1,2,4] triazine-7-carbonilrile]
18 | 9.28 | N#Cc1cc(Nc2nc(NC3CC3)c3ncc(C#N)n3n2)c(Cl)c(N2CCN(C(=O)Cn3ccnc3)CC2)c1 [Example 97, 2-((2-chloro-5-cyano-3-(4-(1H-imidazol-1-ylacetyl)-1-piperazinyl)phenyl)amino)-4-(cyclopropylamino) imidazo[2,1-f][1,2,4] triazine-7-carbonitrile]
19 | 9.44 | N#Cc1cc(Nc2nc(NC3CC3)c3ncc(C#N)n3n2)c(Cl)c(N2CCN(C(=O)CCn3ccnc3)CC2)c1 [Example 98]
20 | 9.49 | N#Cc1cc(Nc2nc(NC3CC3)c3ncc(C#N)n3n2)c(Cl)c(N2CCN(C(=O)Cc3nnn[nH]3)CC2)c1 [Example 99, 2-((2-chloro-5-cyano-3-(4-(1H-tetrazol-5-ylacetyl)-1-piperazinyl)phenyl)amino)-4-(cyclopropylamino) imidazo[2,1-f][1,2,4] triazine-7-carbonitrile]
21 | 9.26 | N#Cc1cc(Nc2nc(NC3CC3)c3ncc(C#N)n3n2)c(Cl)c(N2CCN(C(=O)CN3CCOCC3)CC2)c1 [Example 100, 2-((2-chloro-5-cyano-3-(4-(4-morpholinylacetyl)-1-piperazinyl)phenyl)amino)-4-(cyclopropylamino) imidazo[2,1-f][1,2,4] triazine-7-carbonitrile]
22 | 8.90 | CCNc1nc(Nc2cc(C#N)cc(N3CCN(C4CN(C(=O)OC)C4)CC3)c2Cl)nn2c(C#N)cnc12 [Example 101, methyl 3-(4-(2-chloro-5-cyano-3-((7-cyano-4-(ethylamino)imidazo [2,1-f][1,2,4]triazin-2-yl)amino)phenyl)-1-piperazinyl)-1-azetidinecarboxylate]
23 | 8.96 | N#Cc1cc(Nc2nc(NC3CC3)c3ncc(C#N)n3n2)c(Cl)c(N2CCN([C@H]3C[C@H](O)C3)CC2)c1 [Example 102, (+/−) 2-((2-chloro-5-cyano-3-(4-(trans-3-hydroxycyclobutyl)-1-piperazinyl)phenyl)amino)-4-(cyclopropylamino) imidazo[2,1-f][1,2,4] triazine-7-carbonitrile]
24 | 9.15 | N#Cc1cc(Nc2nc(NC3CC3)c3ncc(C#N)n3n2)c(Cl)c(N2CCN(C3(C#N)COC3)CC2)c1 [Example 104, 2-((2-chloro-5-cyano-3-(4-(3-cyano-3-oxetanyl)-1-piperazinyl)phenyl)amino)-4-(cyclopropylamino) imidazo[2,1-f][1,2,4] triazine-7-carbonitrile]
25 | 9.38 | N#Cc1cc(Nc2nc(NC3CC3)c3ncc(C#N)n3n2)c(Cl)c(N2CCN(C3COC3)CC2)c1 [Example 105, 2-(2-chloro-5-cyano-3-(4-(oxetan-3-yl)piperazin-1-yl)phenylamino)-4-(cyclopropylamino) imidazo[1,2-f][1,2,4] triazine-7-carbonitrile]
26 | 8.91 | N#Cc1cc(Nc2nc(NC3CC3)c3ncc(C#N)n3n2)c(Cl)c(N2CCN([C@H]3C[C@@H](C#N)C3)CC2)c1 [Example 106]
27 | 9.23 | N#Cc1cc(Nc2nc(NC3CC3)c3ncc(C#N)n3n2)c(Cl)c(N2CCN([C@H]3C[C@H](C#N)C3)CC2)c1 [Example 107, 2-((2-chloro-5-cyano-3-(4-(trans-3-cyanocyclobutyl)-1-piperazinyl)phenyl)amino)-4-(cyclopropylamino) imidazo[2,1-f][1,2,4] triazine-7-carbonitrite]
28 | 9.24 | N#Cc1cc(Nc2nc(NC3CC3)c3ncc(C#N)n3n2)c(Cl)c(N2CCC(NC3COC3)CC2)c1 [Example 110, 2-((2-chloro-5-cyano-3-(4-(3-oxetanylamino)-1-piperidinyl)phenyl)amino)-4-(cyclopropylamino)imidazo [2,1-f][1,2,4]triazine-7-carbonitrile]
29 | 9.17 | CC1(O)CN(C2CCN(c3cc(C#N)cc(Nc4nc(NC5CC5)c5ncc(C#N)n5n4)c3Cl)CC2)C1 [Example 111, 2-(2-chloro-5-cyano-3-(4-(3-hydroxy-3-methylazetidin-1-yl)piperidin-1-yl)phenylamino)-4-(cyclopropylamino)imidazo [1,2-f][1,2,4]triazine-7-carbonitrile]
30 | 9.08 | CCOC(=O)N1CCC(NC2CCN(c3cc(C#N)cc(Nc4nc(NC5CC5)c5ncc(C#N)n5n4)c3Cl)CC2)CC1 [Example 118, ethyl 4-((1-(2-chloro-5-cyano-3-((7-cyano-4-(cyclopropylamino)imidazo [2,1-f][1,2,4]triazin-2-yl)amino)phenyl)-4-piperidinyl)amino)-1-piperidinecarboxylate]
